Experimental data reported in patent publication US20110318415A1, “Hollow Gold Nanospheres (HAuNSs) and HAuNSs-Loaded Microspheres Useful in Drug Delivery” (priority 2009, published 2011).

Assays:
[1] = tested on: MDA-MB-231 cells; assay: Cell uptake of DOX@HAuNS and DOX@PEG-HAuNS (fluorescence and dark-field microscopy); assay type: cell-based, human; details: without NIR laser; 1 h to 48 h incubation
Method: MDA-MB-231 cells were transferred and cultured onto 20-mm glass cover slips in a 24-well plate and allowed to grow for 2 days. Then the medium was replaced with 1 mL of fresh culture medium containing free DOX, DOX@HAuNS, or DOX@PEG-HAuNS. After incubation for 1 hr or 48 h, the cell monolayer on the cover slip was removed, repeatedly rinsed with PBS, and then mounted for microscopic examination. The cellular fluorescence and dark-field light scattering images were examined under a Zeiss Axio Observer.Z1 fluorescence microscope (Carl Zeiss MicroImaging GmbH, USA) equipped with a dark-field condenser.
In a separated experiment, MDA-MB-231 cells cultured on 20-mm glass cover slips were irradiated with NIR laser (1.0 W/cm^2 for 3 min per treatment, 4 treatments in 2 h). Cell nuclei were stained with DAPI. The cellular fluorescence and light scattering images were obtained as described in the preceding paragraph.

[2] = tested on: MDA-MB-231 cells; assay: Cytotoxicity of DOX-HAuNS and DOX-PEG-HAuNS (MTT); assay type: cell-based, human; details: equivalent DOX concentration 10 μg/mL, no NIR
Method: A total of 2.0×10^4 cells were plated in 96-well plates and incubated for 24 h to allow the cells to attach. The cells were exposed to free DOX, DOX@HAuNS, or DOX@PEG-HAuNS with various DOX concentrations. The cells were or were not irradiated with NIR laser at an output power of 2 W/cm^2 (3 min per treatment, 4 treatments in 2 h). Then the cells were incubated at 37° C. for a further 48 h. […] The data reported represented the means of triplicate measurements. In a separate experiment, the cells were exposed to HAuNS with various Au concentrations and then were or were not irradiated with NIR laser under the same conditions. Cell survival efficiency was measured after the incubation at 37° C. for 48 h.

## COc1cccc2c1C(=O)c1c(O)c3c(c(O)c1C2=O)C[C@@](O)(C(=O)CO)C[C@@H]3O[C@H]1C[C@H](N)[C@H](O)[C@H](C)O1 [free DOX, doxorubicin]
[1]
  cellular uptake and intracellular distribution: taken up by the tumor cells and distributed to cell nuclei
[2]
  cells killed: 77.4%
